In series [1] the test system is Leishmania infantum. Description: Antileishmanial activity against Leishmania infantum BCN150 promastigotes harboring iRFP gene by infrared imaging method. It is filed as functional.
Series [2] deals with Leishmania infantum. Description: Antileishmanial activity against Leishmania infantum amastigotes harboring iRFP gene infected BALB/c mouse splenocytes after 48 hrs by infrared imaging method. The format is functional.
Series [3] in a line: Cytotoxicity against BALB/c mouse splenocytes assessed as cell viability after 48 hrs by alamar blue assay. It is filed as toxicity, Splenocyte. Background: Resazurin is reduced to fluorescent resorufin, in cell work by metabolically active cells.
The nature of series [4]: Selectivity index, ratio of CC50 for BALB/c mouse splenocytes to IC50 for Leishmania infantum amastigotes harboring iRFP gene infected BALB/c mouse splenocytes. It is filed as functional.
The test system of series [5] is Leishmania infantum. Description: Inhibition of Leishmania infantum recombinant topoisomerase 1B expressed in topoisomerase 1B- deficient Saccharomyces cerevisiae EKY3 assessed as decrease in relaxation of negatively supercoiled pSK DNA at 100 uM preincubated for 15 mins followed by supercoiled pSK DNA addition measured after 5 mins by aggarose gel electrophoresis.

Series [6] relates to Leishmania infantum. Description: Inhibition of Leishmania infantum recombinant topoisomerase 1B expressed in topoisomerase 1B- deficient Saccharomyces cerevisiae EKY3 assessed as decrease in relaxation of negatively supercoiled pSK DNA at 100 uM preincubated for 5 mins followed by supercoiled pSK DNA addition measured after 5 mins by aggarose gel electrophoresis.
Series [7] is described as follows: Inhibition of Leishmania infantum recombinant topoisomerase 1B expressed in topoisomerase 1B- deficient Saccharomyces cerevisiae EKY3 assessed as decrease in relaxation of negatively supercoiled pSK DNA preincubated for 15 mins followed by supercoiled pSK DNA addition measured after 5 mins by aggarose gel electrophoresis.
Series [8] relates to Leishmania infantum. Description: Inhibition of Leishmania infantum recombinant topoisomerase 1B expressed in topoisomerase 1B- deficient Saccharomyces cerevisiae EKY3 assessed as decrease in relaxation of negatively supercoiled pSK DNA at 100 uM preincubated for 1 min followed by supercoiled pSK DNA addition measured after 5 mins by aggarose gel electrophoresis.

Active and inactive are the calls of the source. The calls are words filed in the database; no cut-off is given here.

For the compound `Fc1cccc([C@H]2Nc3cccnc3[C@H]3c4ccccc4C[C@H]32)c1` (relative stereo), the IC50 (commonly the point on the concentration scale where inhibition reaches its midpoint) in the series on Leishmania infantum [1] came out at 89.9 µM; in the series with Leishmania infantum [2] it was 94.7 µM. The half-maximal cytotoxic concentration (CC50) (commonly the concentration that lowers cell viability or growth by half) at 48 h in series [3] was 85.3 µM. For the same compound, the “Ratio CC50/IC50” value in series [4] is 0.9.
On to `Fc1ccc(-c2nc3cccnc3c3c2Cc2ccccc2-3)c(F)c1`, for which the IC50 with Leishmania infantum [2] came to 6.07 µM. Also, the CC50 at 48 h in series [3] came out at 76.9 µM. Besides, the “Ratio CC50/IC50” value in series [4] amounted to 12.7.
With `c1ccc2c(c1)Cc1c(-c3ccncc3)nc3cccnc3c1-2`, in the series on Leishmania infantum [1], the midpoint of inhibition, the IC50, lay at 33.9 µM. In addition, the CC50 at 48 h in series [3] is 19.9 µM.
With `CCOC(=O)[C@H]1Nc2cccnc2[C@H]2c3ccccc3C[C@H]21` (relative stereo), the figures for the IC50 with Leishmania infantum [1] and in the series with Leishmania infantum [2] were 90.8 µM and 78.5 µM, respectively. Further, the CC50 at 48 h in series [3] is more than 100 µM. In series [4], the “Ratio CC50/IC50” value is given as more than 1.27.
In the case of `C[C@H]1Nc2cccnc2[C@H]2c3ccccc3C[C@H]21` (relative stereo), the IC50 in the series with Leishmania infantum [1] was more than 100 µM; in the series on Leishmania infantum [2] it was 89.4 µM. The CC50 at 48 h in series [3] is more than 100 µM. Moreover, the “Ratio CC50/IC50” value in series [4] is reported as more than 1.12.
In the case of `Fc1ccc([C@H]2Nc3cccnc3[C@H]3c4ccccc4C[C@H]32)cc1` (relative stereo), the inhibition result in the series with Leishmania infantum [5] and with Leishmania infantum [6] was “Active” in each case. The IC50 amounted to 9.8 µM with Leishmania infantum [1], 2.97 µM in the series with Leishmania infantum [2] and 49 µM in series [7]. In addition, the CC50 at 48 h in series [3] came out at 57.9 µM. Further, the “Ratio CC50/IC50” value in series [4] is recorded as 19.5.
Turning to `Cc1ccc(-c2nc3cccnc3c3c2Cc2ccccc2-3)cc1`, the 50% inhibitory concentration (IC50) in the series on Leishmania infantum [1] stood at 69.4 µM; with Leishmania infantum [2], 58.3 µM. The CC50 at 48 h in series [3] came out at 68.2 µM. In addition, in series [4], the “Ratio CC50/IC50” value was 1.17.
In the case of `Fc1ccc([C@H]2Nc3cccnc3[C@H]3c4ccccc4C[C@H]32)c(F)c1` (relative stereo), the results for the IC50 (in the series on Leishmania infantum [1]; with Leishmania infantum [2]; in series [7]) were 3.7 µM, 0.67 µM and 41.8 µM, respectively. The inhibition entry in the series on Leishmania infantum [8] and in the series with Leishmania infantum [6] was “Active” throughout. The CC50 at 48 h in series [3] came to 32.1 µM. The “Ratio CC50/IC50” value in series [4] is listed as 47.9.
With `c1ccc(-c2nc3cccnc3c3c2Cc2ccccc2-3)cc1`, the results for the IC50 in the series on Leishmania infantum [1] and in the series on Leishmania infantum [2] were 70.1 µM and 63.3 µM, respectively. In addition, the cytotoxic concentration (CC50) at 48 h in series [3] amounted to 90.2 µM. In addition, the “Ratio CC50/IC50” value in series [4] is on record as 1.43.
For `C[C@@H]1[C@H](O)[C@@H](C)/C=C/C=C/C=C/C=C/C=C/C=C/C=C/[C@H](O[C@@H]2O[C@H](C)[C@@H](O)[C@H](N)[C@@H]2O)C[C@@H]2O[C@](O)(C[C@@H](O)C[C@@H](O)[C@H](O)CC[C@@H](O)C[C@@H](O)CC(=O)O[C@H]1C)C[C@H](O)[C@H]2C(=O)O` [AMPHOTERICIN B] the same measures were 0.77 µM, 0.32 µM, more than 20 µM and more than 62.5.
For `CCOC(=O)c1nc2cccnc2c2c1Cc1ccccc1-2` the same measures were 33.3 µM, 25.1 µM, 59.4 µM and 2.4.
For `c1ccc2c(c1)C[C@@H]1[C@H]2c2ncccc2N[C@@H]1c1ccncc1` (relative stereo) the same measures were 82.5 µM, 65.2 µM, 94.6 µM and 1.45.
As for `Fc1ccc(-c2nc3cccnc3c3c2Cc2ccccc2-3)cc1F`, the IC50 with Leishmania infantum [1] is 86.1 µM; in the series on Leishmania infantum [2], 78.2 µM. In addition, the CC50 at 48 h in series [3] came out at 74.2 µM. In addition, the “Ratio CC50/IC50” value in series [4] is recorded as 0.95.
Taken in the same sequence, the figures for `CSc1ccc(-c2nc3cccnc3c3c2Cc2ccccc2-3)cc1` were 75.1 µM, 58.1 µM, 80.9 µM and 1.39.

For the origin of these results see ChEMBL document CHEMBL3877246, “Antileishmanial effect of new indeno-1,5-naphthyridines, selective inhibitors of Leishmania infantum type IB DNA topoisomerase” (Eur J Med Chem, 2016).
